Test results from patent US11344493B2, “Cleavable surfactant” (FIRMENICH SA, priority 2017, dated 2022).
One block for each molecule: values may come before it.

What was measured:
[1] = Equilibration of imines in deuterium oxide (1H NMR); format: physicochemical; conditions: conditions of Table 3
Procedure: (§1) The compounds according to formula (I) at different concentrations (c=10 . . . 500 mM) were individually dissolved in deuterium oxide (0.7 mL) at room temperature. The pD was measured and the hydrolysis of the imine was followed by ^1H NMR until an equilibrium was reached. The imine concentration at equilibrium was determined. Reactions with constant pD were either performed at unmodified pD (basic) or in a 4-(2-hydroxyethyl)-1-piperazineethanesulfonic acid (HEPES) buffer (slightly acidic). The data summarized in Table 3 were obtained from the measurements.

[2] = Surface tension of aqueous solutions (Kruss DSA 10 MK2 Drop Shape Analysis); format: physicochemical; conditions: for surface tension / surface activity: aqueous solution 1% wt, FIG. 2; for critical concentration (CMC) and self-aggregation in micelles: surface tension as function of concentration, FIG. 3
Procedure: The surface activity of aqueous solutions of typical well known surfactants at concentration of 1% wt was measured by Kruss DSA 10 MK2 Drop Shape Analysis System. In parallel, the HLB value of the surfactant molecules was calculated by using ECL model. FIG. 2 represented the correlation between the surface tension and the calculated HLB values (black circles). The curve reached a saturation value at HLB 18, which was the limit of the HLB range for the compound of formula (I). All molecules having HLB higher than 18 are not part of the present invention due to a strong water solubility and an insufficient surface activity.
The surface tension of compounds of formula (I): Imine F, Imine D, Imine E, Imine B and of comparative Imine C1, was measured as well and the data were added to FIG. 2 (grey squares). […] The HLB calculated for this molecule was higher than 18 and therefore out of the limits fixed in the present invention.
As a comparative example, the compound Imine C7 reported in Polymer 2014, vol. 55, pages 1443-1451 was synthetized (see Example 3 g)) and surface tension of the aqueous solution of 1% wt of this molecule was measured. The data was included in FIG. 2 (black triangle).
The surface tension as function of the concentration of Imine compounds F and C1 was measured and presented on FIG. 3.

[3] = Kinetics of hydrolysis of imines in deuterium oxide (1H NMR); format: physicochemical; conditions: for order of hydrolysis kinetics: t1/2 versus initial concentration
Procedure: as §1

[4] = Hydrolysis of imines in model formulation with Texapon NSO IS; format: physicochemical; conditions: Texapon NSO IS 4 wt % in deuterium oxide, c0 10 mM
Procedure: To investigate the hydrolysis of the imines according to formula (I), a simple model formulation in deuterium oxide was prepared. Freeze-dried Texapon® NSO IS (trademark from BASF and commercially available from BASF) (4 wt %) was dissolved in deuterium oxide (95 wt %) at room temperature. The imine according to formula (I) (1 wt %) was added to the formulation at the beginning of the experiment (t=0), the pH was measured and the NMR measurements were started.

[5] = Solubilizing capacity of imines for a model perfume in water; format: physicochemical; conditions: for Fragrance/Surfactant Weight Ratio: transparent solution of model perfume in water; for Imine: minimal value of surfactant necessary to obtain a transparent solution: water 9.0 g and model perfume 0.3 g
Procedure: Water (9.0 g) and the model perfume composition of Table 8 (0.3 g) are mixed under gentle agitation. The resulting solution is turbid. Imines of formula (I) are then added until a transparent solution was obtained. The ratio fragrance to surfactant indicates the solubilizing capacity of the imines wherein higher ratio indicates higher solubilizing capacity of the imine.

[6] = Hydrolysis of imines in deuterium oxide in the presence of co-surfactants; format: physicochemical; conditions: c0 10 mM
Procedure: The influence of the presence of (co-)surfactants on the hydrolysis of imines according to formula (I) was investigated by ^1H NMR spectroscopy in deuterium oxide (0.7 mL) as described in Example 5 with an initial imine concentration of 10 mM and 4 wt % of an additional surfactant. The following surfactants were tested: sodium dodecyl sulfate (SDS), sodium laureth sulphate (Texapon® NSO IS; trademark from BASF and commercially available from BASF), hexadecyl-trimethyl-ammonium bromide (cetrimonium bromide), 2,5,8,11,14,17,20,23,26,29,32,35,38,41,44,47,50,53,56,59,62,65,68,71,74-pentacosaoxahexaheptacontan-76-yl stearate (PEG25Monostearate), (polyethylene glycol)9,10 4-(1,1,3,3-tetramethylbutyl)-phenyl ether (Triton® X-100; trademark from Dow Chemical and commercially available from Sigma Aldrich), polyoxyethylene 20 sorbitan monooleate (Tween® 80; trademark from Uniquema, ICI Americas Inc. and commercially available from Sigma Aldrich).

[7] = format: physicochemical; conditions: pH 2.6
From the text: Compounds according to formula (I) were included into citral containing microemulsions formed by mixing a buffer solution at pH=2.6 (48% citric acid and 3.2% NaOH in water), Tween® 80 (trademark from Uniquema, ICI Americas Inc. and commercially available from Sigma Aldrich) and citral in the quantities listed in Table 10. […] The two solutions contained equimolar amounts of citral. At different time intervals the different formulations (0.305 g) were extracted by adding an aqueous solution of NaCl (15%, 2.745 g) and iso-octane (3.050 g). The mixtures were stirred (at 500 rpm for 10 min) and left equilibrating (5 min) to separate into two well distinguished phases. The phases were carefully separated and the organic phase (20 μL) analysed by GC/MS. GC/MS analyses were carried out on an Agilent 6890N Network GC system and an Agilent 5973 Network MS. […] Citral was analyzed by single ion monitoring and the extracted citral concentrations were determined by external standard calibration. […] The citral concentration measured in the extraction experiments as a function of time (FIG. 1), were fitted with Equation 2. The degradation rates, as well as the initial maximum citral concentrations were determined.

[8] = Hydrolysis of imines in model formulation with Hostapur SAS 60 and Genapol LA 70; format: physicochemical; conditions: Hostapur SAS 60 7 wt % and Genapol LA 70 17 wt % in deuterium oxide, c0 10 mM, pD 10.4
Procedure: A second aqueous surfactant solution was prepared by dissolving freeze-dried sodium C14-17 sec-alkyl sulphonate (Hostapur® SAS 60; trademark from Clariant GmbH and commercially available from Clariant GmbH; 7 wt %) and freeze-dried ethoxylated C12-16 alcohols (Genapol® LA 70; trademark from Clariant GmbH and commercially available from Clariant GmbH; 17 wt %) in deuterium oxide (75 wt %) at room temperature. Then, sodium deuteroxide 40% in deuterium oxide was added until reaching a pH of 10. The imine according to formula (I) (1 wt %) was added to the formulation at the beginning of the experiment (t=0), the pH was measured and the NMR measurements were started.

SMILES: CCCCCCC(C=NC(C)COC(C)COC(C)COC(C)COC(C)COC(C)COC(C)COC(C)COC(C)COC(C)COCCOCCOCCOCCOCCOCCOCCOCCOCCOCCOCCOCCOCCOCCOCCOCCOCCOCCOCCOCCOCCOCCOCCOCCOCCOCCOCCOCCOCCOCCOCCOC)=Cc1ccccc1 (mixture of isomers) [Imine C]
order of hydrolysis kinetics [3]: pseudo-zero order kinetics
half-time of hydrolysis (t1/2) ([4]; pD 10.5): 17.5 h
Fragrance/Surfactant Weight Ratio [5]: 4.0
Imine: minimal value of surfactant necessary to obtain a transparent solution [5]: 11.43%

SMILES: CCCCCCCC=CCCC=NC(C)COC(C)COC(C)COC(C)COC(C)COC(C)COC(C)COC(C)COC(C)COC(C)COCCOCCOCCOCCOCCOCCOCCOCCOCCOCCOCCOCCOCCOCCOCCOCCOCCOCCOCCOCCOCCOCCOCCOCCOCCOCCOCCOCCOCCOCCOCCOC (mixture of isomers) [Imine G]
Fragrance/Surfactant Weight Ratio [5]: 5.3
Imine: minimal value of surfactant necessary to obtain a transparent solution [5]: 14.68%

SMILES: CCCCCCC(C=NCCc1ccc(OCCOCCOCCOCCOCCOCCOCCOCCOCCOCCOCCOC)cc1)=Cc1ccccc1 [Imine A]
half-time of hydrolysis (t1/2) ([3]; c0 10 mM, pD 10.1): 59.5 h
initial rate of hydrolysis (v0) ([3]; c0 10 mM, pD 10.1): 1.3 10^−3 mM/min
half-time of hydrolysis (t1/2) ([4]; pD 10.6): 9.2 h
half-time of hydrolysis t1/2 (est.) [8]: 42.5 h

SMILES: CCCCCCC(C=NCCOCCOCCOCCOCCOCCOCCOCCOCCOCCOCCOC)=Cc1ccccc1 [Imine C5]
half-time of hydrolysis ([3]; at all concentrations): around 5 h
half-time of hydrolysis (t1/2) ([3]; c0 10 mM, pD 10.5): 4.56 h
initial rate of hydrolysis (v0) ([3]; c0 10 mM, pD 10.5): 14.8 10^−3 mM/min
half-time of hydrolysis (t1/2) ([3]; c0 25 mM, pD 10.5): 8.4 h
initial rate of hydrolysis (v0) ([3]; c0 25 mM, pD 10.5): 23.7 10^−3 mM/min
half-time of hydrolysis (t1/2) ([3]; c0 100 mM, pD 10.4): 5.28 h
initial rate of hydrolysis (v0) ([3]; c0 100 mM, pD 10.4): 856 10^−3 mM/min
order of hydrolysis kinetics [3]: pseudo-first order kinetics
half-time of hydrolysis (t1/2) ([4]; pD 10.5): 4.3 h
initial rate of hydrolysis (v0) ([4]; pD 10.5): 35.4 10^−3 mM/min

The next lines start with results.

stability of the imine at equilibrium [1]: mostly cleaved
surface tension / surface activity [2]: high surface tension value
critical concentration (CMC) and self-aggregation in micelles [2]: absence of CMC and self-aggregation
SMILES: COCCOCCOCCOCCOCCOCCOCCOCCOCCOCCOCCOCCOCCOCCOCCOCCOCCOCCOCCOCC(C)OCC(C)OCC(C)N=Cc1ccc(O)c(OC)c1 (mixture of isomers) [Imine C1, reference compound]

concentration at equilibrium (ceq) ([6]; co-surfactant Certrimmonium bromide 4 wt %, pD 10.5): 4750 µM
concentration at equilibrium (ceq) ([6]; co-surfactant PEG25Monostearate 4 wt %, pD 10.5): 2790 µM
concentration at equilibrium (ceq) ([6]; co-surfactant SDS 4 wt %, pD 10.5): 8930 µM
concentration at equilibrium (ceq) ([6]; co-surfactant Texapon NSO IS 4 wt %, pD 10.5): 5960 µM
concentration at equilibrium (ceq) ([6]; co-surfactant none, pD 10.5): 2950 µM
Fragrance/Surfactant Weight Ratio [5]: 5.2
Imine: minimal value of surfactant necessary to obtain a transparent solution [5]: 14.36%
surface tension / surface activity [2]: strong surface activity
SMILES: COCCOCCOCCOCCOCCOCCOCCOCCOCCOCCOCCOCCOCCOCCOCCOCCOCCOCCOCCOCC(C)OCC(C)OCC(C)N=CC=C(C)CCC=C(C)C (mixture of isomers) [Imine D]

concentration at equilibrium (ceq) ([6]; co-surfactant PEG25Monostearate 4 wt %, pD 10.4): 7500 µM
concentration at equilibrium (ceq) ([6]; co-surfactant PEG25Monostearate 4 wt %, phosphate buffer (pD 4.4)): 6400 µM
concentration at equilibrium (ceq) ([6]; co-surfactant none, pD 10.4): 2800 µM
Fragrance/Surfactant Weight Ratio [5]: 9.3
Imine: minimal value of surfactant necessary to obtain a transparent solution [5]: 23.14%
decrease of the citral degradation rate [7]: 1.53 times
surface tension / surface activity [2]: strong surface activity
SMILES: COCCOCCOCCOCCOCCOCCOCCOCCOCCOCCOCCOCCOCCOCCOCCOCCOCCOCCOCCOCCOCCOCCOCCOCCOCCOCCOCCOCCOCCOCCOCCOCC(C)OCC(C)OCC(C)OCC(C)OCC(C)OCC(C)OCC(C)OCC(C)OCC(C)OCC(C)N=CC=C(C)CCC=C(C)C (mixture of isomers) [Imine E]

Fragrance/Surfactant Weight Ratio [5]: 2.7
Imine: minimal value of surfactant necessary to obtain a transparent solution [5]: 7.92%
surface tension / surface activity [2]: strong surface activity
SMILES: CCCCCCCC=CCCC=NC(C)COC(C)COC(C)COCCOCCOCCOCCOCCOCCOCCOCCOCCOCCOCCOCCOCCOCCOCCOCCOCCOCCOCCOC (mixture of isomers) [Imine F]
critical concentration (CMC) and self-aggregation in micelles [2]: existence of critical concentration (CMC)
